Measurements published in patent publication US9790210B2, “N-(monocyclic aryl),N'-pyrazolyl-urea, thiourea, guanidine and cyanoguanidine compounds as TrkA kinase inhibitors” (Array BioPharma Inc., priority 2012, dated 2017).

Target: TrkA (Homo sapiens, UniProt P04629)
Assay: TrkA LanthaScreen Eu Kinase Binding Assay
Set-up: 6HIS tagged cytoplasmic domain from Invitrogen, Catalog No. PV3144; purchased Invitrogen PV3144
Conditions: averaged IC50; TR-FRET binding assay; read-out: TrkA Enzyme IC50
Protocol: TrkA binding activity was determined in a TrkA LanthaScreen™ Eu Kinase Binding Assay. 5 nM His-tagged recombinant human TrkA (6HIS tagged cytoplasmic domain from Invitrogen, Catalog No. PV3144) was incubated with 4 nM Alexa-Fluor® Tracer 236 (Invitrogen Cat. No. PV5592), 2 nM biotinylated anti-His (Invitrogen Cat. No. PV6090), and 2 nM europium-labeled Streptavidin (Invitrogen Cat. No. PV5899), in buffer (25 mM MOPS, pH 7.5, 5 mM MgCl2, 0.005% Triton X-100). Three fold serial dilutions of compounds of the invention in DMSO were added to a final percentage of 2% DMSO. After 60-minute incubation at 22° C., the reaction was measured using the EnVision mutlimode plate reader (PerkinElmer) via TR-FRET dual wavelength detection at […]. The percent of control was calculated using a ratiometric emission factor. The IC50 values were determined by fitting a four parameter model to the percent of control data.
Table A provides averaged IC50 values for compounds of the invention when tested in the assay of Example A, where A represents an averaged IC50 value<100 nM; B represents an averaged IC50 value from 100 to 1,000 nM; and C represents an averaged IC50 value from 1,000 to 10,000 nM.

TrkA, sequence (P04629 440-796 limits assumed): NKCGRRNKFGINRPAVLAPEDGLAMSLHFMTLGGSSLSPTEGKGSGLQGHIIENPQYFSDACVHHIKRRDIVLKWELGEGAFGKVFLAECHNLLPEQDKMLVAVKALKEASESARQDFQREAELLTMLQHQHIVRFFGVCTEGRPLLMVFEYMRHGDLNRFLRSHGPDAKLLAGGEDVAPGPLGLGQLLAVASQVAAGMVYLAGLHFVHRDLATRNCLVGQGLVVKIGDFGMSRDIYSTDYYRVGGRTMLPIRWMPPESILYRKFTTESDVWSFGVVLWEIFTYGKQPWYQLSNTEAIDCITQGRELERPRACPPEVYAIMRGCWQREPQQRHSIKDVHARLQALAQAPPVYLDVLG

Compound	IC50 [nM]
COCCOc1ccc(C(F)(F)F)cc1NC(=O)Nc1c(C)c(-c2cnn(C)c2)nn1-c1ccccc1 [Example 2, 1-(1′,4-dimethyl-1-phenyl-1H,1′H-[3,4′-bipyrazol]-5-yl)-3-(2-(2-methoxyethoxy)-5-(trifluoromethyl)phenyl)urea]	< 100
COCCOc1cc(Cl)c(Cl)cc1NC(=O)Nc1c(C)c(-c2cnn(C)c2)nn1-c1ccccc1 [Example 3, 1-(4,5-dichloro-2-(2-methoxyethoxy)phenyl)-3-(1′,4-dimethyl-1-phenyl-1H,1′H-[3,4′-bipyrazol]-5-yl)urea]	< 100
COCCOc1nc(C(F)(F)F)ccc1NC(=O)Nc1c(C)c(-c2cnn(C)c2)nn1-c1ccccc1 [Example 7, 1-(1′,4-dimethyl-1-phenyl-1H,1′H-[3,4′-bipyrazol]-5-yl)-3-(2-(2-methoxyethoxy)-6-(trifluoromethyl)pyridin-3-yl)urea]	100 to 1000
COCCOc1cc(Cl)c(Cl)cc1NC(=O)Nc1c(C)c(-c2ccc(=O)n(C)c2)nn1-c1ccccc1 [Example 8, 1-(4,5-dichloro-2-(2-methoxyethoxy)phenyl)-3-(4-methyl-3-(1-methyl-6-oxo-1,6-dihydropyridin-3-yl)-1-phenyl-1H-pyrazol-5-yl)urea]	< 100
COCCCc1ccc(Cl)cc1NC(=O)Nc1c(C)c(-c2cnn(C)c2)nn1-c1ccccc1 [Example 9, 1-(5-chloro-2-(3-methoxypropyl)phenyl)-3-(1′,4-dimethyl-1-phenyl-1H,1′H-[3,4′-bipyrazol]-5-yl)urea]	< 100
COCCOc1ccc(Cl)cc1NC(=O)Nc1c(C)c(-c2cnn(C)c2)nn1-c1ccccc1 [Example 12, 1-(5-chloro-2-(2-methoxyethoxy)phenyl)-3-(1′,4-dimethyl-1-phenyl-1H,1′H-[3,4′-bipyrazol]-5-yl)urea]	< 100
COCCCc1cc(Cl)c(Cl)cc1NC(=O)Nc1c(C)c(-c2ccc(=O)n(C)c2)nn1-c1ccccc1 [Example 13, 1-(4,5-dichloro-2-(3-methoxypropyl)phenyl)-3-(4-methyl-3-(1-methyl-6-oxo-1,6-dihydropyridin-3-yl)-1-phenyl-1H-pyrazol-5-yl)urea]	< 100
COCCCc1cc(Cl)c(Cl)cc1NC(=O)Nc1c(C)c(C2(C#N)CCOCC2)nn1-c1ccccc1 [Example 14, 1-(3-(4-cyanotetrahydro-2H-pyran-4-yl)-4-methyl-1-phenyl-1H-pyrazol-5-yl)-3-(4,5-dichloro-2-(3-methoxypropyl)phenyl)urea]	< 100
CNC(=O)c1nn(-c2ccccc2)c(NC(=O)Nc2cc(Cl)c(Cl)cc2CCCOC)c1C [Example 16, 5-(3-(4,5-dichloro-2-(3-methoxypropyl)phenyl)ureido)-N,4-dimethyl-1-phenyl-1H-pyrazole-3-carboxamide]	< 100
COCCCc1cc(Cl)c(Cl)cc1NC(=O)Nc1c(C)c(C2CCN(C)CC2)nn1-c1ccccc1 [Example 18, 1-(4,5-dichloro-2-(3-methoxypropyl)phenyl)-3-(4-methyl-3-(1-methylpiperidin-4-yl)-1-phenyl-1H-pyrazol-5-yl)urea]	< 100
COCCCc1cc(Cl)c(Cl)cc1NC(=O)Nc1c(C)c(OC[C@H](O)CO)nn1-c1ccccc1 [Example 21, (R)-1-(4,5-dichloro-2-(3-methoxypropyl)phenyl)-3-(3-(2,3-dihydroxypropoxy)-4-methyl-1-phenyl-1H-pyrazol-5-yl)urea]	< 100
COCCCc1cc(F)c(C(F)(F)F)cc1NC(=O)Nc1c(C)c(OC[C@H](O)CO)nn1-c1ccccc1 [Example 22, (R)-1-(3-(2,3-dihydroxypropoxy)-4-methyl-1-phenyl-1H-pyrazol-5-yl)-3-(4-fluoro-2-(3-methoxypropyl)-5-(trifluoromethyl)phenyl)urea]	< 100
COCCCc1cc(Cl)c(Cl)cc1NC(=O)Nc1c(C)c(OCC2CCN(C)CC2)nn1-c1ccccc1 [Example 24]	< 100
COCCCc1ccc(C(F)(F)F)cc1NC(=O)Nc1c(C)c(-c2ccc(=O)n(C)c2)nn1-c1ccccc1 [Example 25, 1-(2-(3-methoxypropyl)-5-(trifluoromethyl)phenyl)-3-(4-methyl-3-(1-methyl-6-oxo-1,6-dihydropyridin-3-yl)-1-phenyl-1H-pyrazol-5-yl)urea]	< 100
CNC(=O)c1nn(-c2ccccc2)c(NC(=O)Nc2cc(C(F)(F)F)ccc2CCCOC)c1C [Example 26, 5-(3-(2-(3-methoxypropyl)-5-(trifluoromethyl)phenyl)ureido)-N,4-dimethyl-1-phenyl-1H-pyrazole-3-carboxamide]	< 100
CNC(=O)c1nn(-c2ccccc2)c(NC(=O)Nc2cc(Cl)c(Cl)cc2CC(F)(F)COC)c1C [Example 27, 5-(3-(4,5-dichloro-2-(2,2-difluoro-3-methoxypropyl)phenyl)ureido)-N,4-dimethyl-1-phenyl-1H-pyrazole-3-carboxamide]	< 100
COCCCc1cc(Cl)c(Cl)cc1NC(=O)Nc1c(C)c(OCCN2CCN(C)CC2)nn1-c1ccccc1 [Example 28, 1-(4,5-dichloro-2-(3-methoxypropyl)phenyl)-3-(4-methyl-3-(2-(4-methylpiperazin-1-yl)ethoxy)-1-phenyl-1H-pyrazol-5-yl)urea]	< 100
COCCCc1cc(Cl)c(Cl)cc1NC(=O)Nc1c(C)c(OC[C@@H]2CN(C)CCO2)nn1-c1ccccc1 [Example 31, (S)-1-(4,5-dichloro-2-(3-methoxypropyl)phenyl)-3-(4-methyl-3-((4-methylmorpholin-2-yl)methoxy)-1-phenyl-1H-pyrazol-5-yl)urea]	< 100

The remaining lines, values ahead:

IC50 [nM]	Compound
1000 to 10000	COCCOc1nc(C)ccc1NC(=O)Nc1c(C)c(-c2cnn(C)c2)nn1-c1ccccc1 [Example 1, 1-(1′,4-dimethyl-1-phenyl-1H,1′H-[3,4′-bipyrazol]-5-yl)-3-(2-(2-methoxyethoxy)-6-methylpyridin-3-yl)urea]
100 to 1000	COCCOc1ncc(C(F)(F)F)cc1NC(=O)Nc1c(C)c(-c2cnn(C)c2)nn1-c1ccccc1 [Example 4, 1-(1′,4-dimethyl-1-phenyl-1H,1′H-[3,4′-bipyrazol]-5-yl)-3-(2-(2-methoxyethoxy)-5-(trifluoromethyl)pyridin-3-yl)urea]
< 100	COCCOc1cc(Cl)c(F)cc1NC(=O)Nc1c(C)c(-c2cnn(C)c2)nn1-c1ccccc1 [Example 5, 1-(4-chloro-5-fluoro-2-(2-methoxyethoxy)phenyl)-3-(1′,4-dimethyl-1-phenyl-1H,1′H-[3,4′-bipyrazol]-5-yl)urea]
< 100	COCCOc1nc(C)c(Cl)cc1NC(=O)Nc1c(C)c(-c2cnn(C)c2)nn1-c1ccccc1 [Example 6, 1-(5-chloro-2-(2-methoxyethoxy)-6-methylpyridin-3-yl)-3-(1′,4-dimethyl-1-phenyl-1H,1′H-[3,4′-bipyrazol]-5-yl)urea]
< 100	COCCOc1cc(C(F)(F)F)ccc1NC(=O)Nc1c(C)c(-c2cnn(C)c2)nn1-c1ccccc1 [Example 10, 1-(1′,4-dimethyl-1-phenyl-1H,1′H-[3,4′-bipyrazol]-5-yl)-3-(2-(2-methoxyethoxy)-4-(trifluoromethyl)phenyl)urea]
100 to 1000	COCCOc1cc(Cl)ccc1NC(=O)Nc1c(C)c(-c2cnn(C)c2)nn1-c1ccccc1 [Example 11, 1-(4-chloro-2-(2-methoxyethoxy)phenyl)-3-(1′,4-dimethyl-1-phenyl-1H,1′H-[3,4′-bipyrazol]-5-yl)urea]
< 100	COCCCc1cc(F)c(C(F)(F)F)cc1NC(=O)Nc1c(C)c(-c2ccc(=O)n(C)c2)nn1-c1ccccc1 [Example 17, 1-(4-fluoro-2-(3-methoxypropyl)-5-(trifluoromethyl)phenyl)-3-(4-methyl-3-(1-methyl-6-oxo-1,6-dihydropyridin-3-yl)-1-phenyl-1H-pyrazol-5-yl)urea]
< 100	CNC(=O)c1nn(-c2ccccc2)c(NC(=O)Nc2cc(C(F)(F)F)c(F)cc2CCCOC)c1C [Example 19, 5-(3-(4-fluoro-2-(3-methoxypropyl)-5-(trifluoromethyl)phenyl)ureido)-N,4-dimethyl-1-phenyl-1H-pyrazole-3-carboxamide]
< 100	COCC(F)(F)Cc1cc(Cl)c(Cl)cc1NC(=O)Nc1c(C)c(-c2ccc(=O)n(C)c2)nn1-c1ccccc1 [Example 20, 1-(4,5-dichloro-2-(2,2-difluoro-3-methoxypropyl)phenyl)-3-(4-methyl-3-(1-methyl-6-oxo-1,6-dihydropyridin-3-yl)-1-phenyl-1H-pyrazol-5-yl)urea]
< 100	COCCCc1cc(Cl)c(Cl)cc1NC(=O)Nc1c(C)c(OCCC2CCN(C)CC2)nn1-c1ccccc1 [Example 29, 1-(4,5-dichloro-2-(3-methoxypropyl)phenyl)-3-(4-methyl-3-(2-(1-methylpiperidin-4-yl)ethoxy)-1-phenyl-1H-pyrazol-5-yl)urea]
< 100	COCCCc1cc(Cl)c(Cl)cc1NC(=O)Nc1c(C)c(OC2CCN(C)CC2)nn1-c1ccccc1 [Example 30, 1-(4,5-dichloro-2-(3-methoxypropyl)phenyl)-3-(4-methyl-3-((1-methylpiperidin-4-yl)oxy)-1-phenyl-1H-pyrazol-5-yl)urea]
< 100	COCCCc1cc(Cl)c(Cl)cc1NC(=O)Nc1c(C)c(OC[C@H]2CN(C)CCO2)nn1-c1ccccc1 [Example 32, (R)-1-(4,5-dichloro-2-(3-methoxypropyl)phenyl)-3-(4-methyl-3-((4-methylmorpholin-2-yl)methoxy)-1-phenyl-1H-pyrazol-5-yl)urea]
